This is an account of results in US8853230B2, “Inhibitors of JAK” (Portola Pharmaceuticals, Inc., priority 2009, dated 2014).

One assay concerns the target T1, JAK1 (Homo sapiens, UniProt P23458).
T1 construct: 5 μl of catalytic domain recombinant Kinase enzyme+Tyr peptide substrate (Invitrogen, Calif.); purchased Invitrogen
Briefly: Z'-LYTE kinase assay, JAK1 tyrosine phosphorylation activity. In kind it is biochemical. Particulars: read-out: JAK 1 IC50. In a few lines: (§1)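 Catalytic-domain recombinant enzymes phosphorylate a coumarin/fluorescein-labelled Tyr6 peptide for 1 h at room temperature in the presence of ATP and compound (1% DMSO). Development Reagent then cleaves non-phosphorylated peptide over 1 h, and emission ratio 445/520 nm (ex 400 nm) gives percent phosphorylation; IC50 by 4-parameter logistic model.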

The next assay concerns the target T2, JAK3 (Homo sapiens, UniProt P52333).
T2 construct: 5 μl of catalytic domain recombinant Kinase enzyme+Tyr peptide substrate (Invitrogen, Calif.); purchased Invitrogen
Put plainly: Z'-LYTE kinase assay, JAK3 tyrosine phosphorylation activity. In kind it is biochemical. The gist of the method: as §1

The target of another assay is T3, TYK2 (Homo sapiens, UniProt P29597).
T3 construct: 5 μl of catalytic domain recombinant Kinase enzyme+Tyr peptide substrate (Invitrogen, Calif.); purchased Invitrogen
T3 sequence (P29597 897-1176 limits assumed): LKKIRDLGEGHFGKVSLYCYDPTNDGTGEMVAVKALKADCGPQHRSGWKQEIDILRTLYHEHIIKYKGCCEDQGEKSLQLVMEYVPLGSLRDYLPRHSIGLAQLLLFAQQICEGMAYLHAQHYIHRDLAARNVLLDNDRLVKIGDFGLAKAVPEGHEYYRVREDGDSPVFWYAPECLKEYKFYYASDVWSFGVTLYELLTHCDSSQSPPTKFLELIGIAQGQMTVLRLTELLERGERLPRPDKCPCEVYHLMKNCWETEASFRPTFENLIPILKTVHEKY
Briefly: Z'-LYTE kinase assay, TYK2 tyrosine phosphorylation activity. In kind it is biochemical. In a few lines: as §1

The subject of assay [1] is IL4-induced phospho STAT6 formation in Ramos B lymphocytes. Put plainly: Inhibition of IL4-induced phospho STAT6 formation in Ramos B lymphocytes (flow cytometry). In kind it is cell-based, human. Particulars: Homo sapiens; for inhibition at 0.2 µM: 200 nM compound, read-out: % Inhibition of IL-4 Induced STAT6 Phosphorylation 200 nM; for inhibition at 1 µM: 1 μM compound, read-out: % Inhibition of IL-4 Induced STAT6 Phosphorylation 1 μM. The gist of the method: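 Read-out: phospho-STAT6 (Y641) mean fluorescent intensity by intracellular flow cytometry, expressed as inhibition of the IL4-induced signal. Ramos B lymphocytes were given compound for 1 h at 37°C, then 1 ng/ml IL4 for 10 min, before fixation and methanol permeabilization.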
(In flow cytometry, cells or beads pass a laser one at a time.)

The next assay addresses Syk (Homo sapiens, UniProt P43405). Put plainly: Syk IC50 (Table 1; method not given). It is filed as biochemical.
A further assay concerns the target T4, JAK2 (Homo sapiens, UniProt O60674).
T4 construct: 5 μl of catalytic domain recombinant Kinase enzyme+Tyr peptide substrate (Invitrogen, Calif.); purchased Invitrogen
Put plainly: Z'-LYTE kinase assay, JAK2 tyrosine phosphorylation activity. It is filed as biochemical. In a few lines: as §1

Structures are written as SMILES.

T1 sequence (P23458 875-1153 limits assumed): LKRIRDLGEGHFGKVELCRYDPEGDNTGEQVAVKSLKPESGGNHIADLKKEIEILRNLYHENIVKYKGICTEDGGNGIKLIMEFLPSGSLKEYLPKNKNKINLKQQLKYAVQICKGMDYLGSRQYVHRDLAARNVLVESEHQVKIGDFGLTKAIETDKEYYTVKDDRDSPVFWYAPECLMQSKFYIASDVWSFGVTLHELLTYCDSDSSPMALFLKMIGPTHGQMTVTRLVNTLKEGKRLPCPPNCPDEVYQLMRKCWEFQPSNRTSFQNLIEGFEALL
T2 sequence (P52333 822-1111 limits assumed): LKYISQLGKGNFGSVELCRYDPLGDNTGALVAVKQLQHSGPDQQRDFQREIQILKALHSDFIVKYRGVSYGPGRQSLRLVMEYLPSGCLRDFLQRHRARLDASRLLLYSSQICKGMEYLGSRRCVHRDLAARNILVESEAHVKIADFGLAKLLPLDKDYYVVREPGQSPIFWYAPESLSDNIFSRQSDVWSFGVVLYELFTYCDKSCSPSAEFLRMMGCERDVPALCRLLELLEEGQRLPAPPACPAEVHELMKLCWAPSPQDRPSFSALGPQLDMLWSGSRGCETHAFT
T4 sequence (O60674 849-1124 limits assumed): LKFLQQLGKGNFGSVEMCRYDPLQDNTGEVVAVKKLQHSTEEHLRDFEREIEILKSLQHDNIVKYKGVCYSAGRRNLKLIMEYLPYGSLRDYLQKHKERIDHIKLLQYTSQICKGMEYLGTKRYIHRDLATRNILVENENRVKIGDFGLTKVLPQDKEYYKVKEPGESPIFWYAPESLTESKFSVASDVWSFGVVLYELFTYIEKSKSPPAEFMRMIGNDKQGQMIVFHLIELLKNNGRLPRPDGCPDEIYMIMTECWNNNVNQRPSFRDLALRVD

A word on the IC50: it is the concentration that gives 50% inhibition. By inhibition is commonly meant the drop in the measured response relative to a control, in per cent. With `CC(=O)Nc1cccc(Nc2ncc(C(N)=O)c(NC3CCOCC3)n2)c1` [Example 75, 2-(3-acetamidophenylamino)-4-(tetrahydro-2H-pyran-4-ylamino)pyrimidine-5-carboxamide], the half-maximal inhibitory concentration (IC50) at JAK1 was 10 to 100 nM; against JAK3 it was 1 to 10 nM; on TYK2, 10 to 100 nM; against Syk, > 1000 nM; on JAK2, 10 to 100 nM. Further, the inhibition at 0.2 µM in assay [1] is 53.3%. Moreover, the inhibition at 1 µM in assay [1] was found to be 90.3%.
Take `CC(=O)Nc1cccc(Nc2ncc(C(N)=O)c(N[C@H](CO)c3ccccc3)n2)c1` [Example 93, (S)-2-(3-acetamidophenylamino)-4-(2-hydroxy-1-phenylethylamino)pyrimidine-5-carboxamide]: the IC50 on JAK1 is 100 to 1000 nM; against JAK3, 1 to 10 nM; at TYK2 it was 10 to 100 nM; at Syk it was > 1000 nM; against JAK2, 10 to 100 nM. Moreover, the inhibition at 0.2 µM in assay [1] came out at 20%. In addition, in assay [1], the inhibition at 1 µM is 53%.
For the compound `COC(=O)Nc1cccc(Nc2ncc(C(N)=O)c(NCc3ccccc3)n2)c1` [Example 30, methyl 3-(4-(benzylamino)-5-carbamoylpyrimidin-2-ylamino)phenylcarbamate], the IC50 at JAK1 lay within 100 to 1000 nM; against JAK3, 1 to 10 nM; against TYK2, 1 to 10 nM; against Syk it was 100 to 1000 nM; on JAK2 it was 10 to 100 nM. In addition, in assay [1], the inhibition at 0.2 µM was determined as 8.3%. In assay [1], the inhibition at 1 µM worked out at 63%.
Take `C[C@@H](Nc1nc(Nc2cccc(NC(=O)N3CC[C@H](O)C3)c2)ncc1C(N)=O)c1ccccc1` [Example 128, 2-(3-((S)-3-hydroxypyrrolidine-1-carboxamido)phenylamino)-4-((R)-1-phenylethylamino)pyrimidine-5-carboxamide]: the IC50 is 10 to 100 nM on JAK1; < 1 nM at JAK3; 10 to 100 nM at TYK2; > 1000 nM against Syk; 10 to 100 nM against JAK2. The inhibition at 0.2 µM in assay [1] was found to be 31.7%. Besides, the inhibition at 1 µM in assay [1] was determined as 82.7%.
Consider `COCC(=O)Nc1cccc(Nc2ncc(C(N)=O)c(NCc3ccccc3)n2)c1` [Example 29, 4-(benzylamino)-2-(3-(2-methoxyacetamido)phenylamino)pyrimidine-5-carboxamide], for which the IC50 was 10 to 100 nM on JAK1; 1 to 10 nM at JAK3; 1 to 10 nM at TYK2; > 1000 nM against Syk; 10 to 100 nM on JAK2. Also, in assay [1], the inhibition at 0.2 µM is 37.5%. Also, the inhibition at 1 µM in assay [1] was 80%.
In the case of `COCC(=O)Nc1cccc(Nc2ncc(C(N)=O)c(NC(C)C)n2)c1` [Example 57, 4-(isopropylamino)-2-(3-(2-methoxyacetamido)phenylamino)pyrimidine-5-carboxamide], the IC50 on JAK1 was 10 to 100 nM; on JAK3 it was 1 to 10 nM; against TYK2, 10 to 100 nM; against Syk, 100 to 1000 nM; on JAK2, 10 to 100 nM. The inhibition at 0.2 µM in assay [1] stood at 55%. In assay [1], the inhibition at 1 µM was determined as 76.5%.
In the case of `CC(=O)Nc1cccc(Nc2ncc(C(N)=O)c(N[C@H](CO)Cc3cnc[nH]3)n2)c1` [Example 60, (S)-2-(3-acetamidophenylamino)-4-(1-hydroxy-3-(1H-imidazol-5-yl)propan-2-ylamino)pyrimidine-5-carboxamide], the IC50 at JAK1 is 100 to 1000 nM; on JAK3, 10 to 100 nM; against TYK2, 100 to 1000 nM; on Syk, > 1000 nM; against JAK2 it was 100 to 1000 nM. In addition, in assay [1], the inhibition at 0.2 µM was 12.5%. In addition, the inhibition at 1 µM in assay [1] amounted to 23%.
Take `CCOC(=O)Nc1cccc(Nc2ncc(C(N)=O)c(NC3CCCC3)n2)c1` [Example 24, ethyl 3-(5-carbamoyl-4-(cyclopentylamino)pyrimidin-2-ylamino)phenylcarbamate]: the IC50 lay within 100 to 1000 nM at JAK1; 10 to 100 nM at JAK3; 10 to 100 nM against TYK2; 100 to 1000 nM against Syk; 100 to 1000 nM on JAK2. Also, the inhibition at 0.2 µM in assay [1] is 24.7%. Further, the inhibition at 1 µM in assay [1] came out at 71.3%.
For the compound `COC(=O)Nc1cc(Nc2ncc(C(N)=O)c(N[C@H](C)c3ccccc3)n2)ccc1Cl` [Example 129, (R)-methyl 5-(5-carbamoyl-4-(1-phenylethylamino)pyrimidin-2-ylamino)-2-chlorophenylcarbamate], the IC50 at JAK1 was > 1000 nM; at JAK3, 10 to 100 nM; at TYK2, 100 to 1000 nM; against Syk it was > 1000 nM; at JAK2, 100 to 1000 nM. Besides, in assay [1], the inhibition at 0.2 µM was found to be 4%. Besides, the inhibition at 1 µM in assay [1] was found to be 16.7%.
For `NC(=O)c1cnc(Nc2cccc(NC(=O)N3CCCC3)c2)nc1NCc1ccccc1` [Example 40, 4-(benzylamino)-2-(3-(pyrrolidine-1-carboxamido)phenylamino)pyrimidine-5-carboxamide], the IC50 at JAK1 is 10 to 100 nM; on JAK3, < 1 nM; at TYK2, 1 to 10 nM; on Syk, > 1000 nM; on JAK2, 10 to 100 nM. Moreover, the inhibition at 0.2 µM in assay [1] turned out to be 47.2%. In assay [1], the inhibition at 1 µM amounted to 78.8%.
Consider `NC(=O)c1cnc(Nc2cccc(NC(=O)C3CC3)c2)nc1NCC(F)(F)F` [Example 5, 2-(3-(cyclopropanecarboxamido)phenylamino)-4-(2,2,2-trifluoroethylamino)pyrimidine-5-carboxamide], for which the IC50 was in the range of 100 to 1000 nM on JAK1; 10 to 100 nM against JAK3; 10 to 100 nM at TYK2; 100 to 1000 nM on Syk; 100 to 1000 nM against JAK2.
Regarding `COCC(=O)N(C)c1cccc(Nc2ncc(C(N)=O)c(NC3CCCC3)n2)c1` [Example 89, 4-(cyclopentylamino)-2-(3-(2-methoxy-N-methylacetamido)phenylamino)pyrimidine-5-carboxamide], the IC50 is 10 to 100 nM on JAK1; 1 to 10 nM against JAK3; 10 to 100 nM on TYK2; > 1000 nM against Syk; 1 to 10 nM against JAK2.
Consider `COCC(=O)Nc1cccc(Nc2ncc(C(N)=O)c(NCC(F)(F)F)n2)c1` [Example 6, 2-(3-(2-methoxyacetamido)phenylamino)-4-(2,2,2-trifluoroethylamino)pyrimidine-5-carboxamide], for which the IC50 on JAK1 was 10 to 100 nM; on JAK3 it was 10 to 100 nM; on TYK2 it was 10 to 100 nM; on Syk, 100 to 1000 nM; against JAK2, 10 to 100 nM.
Take `CC(=O)Nc1cccc(Nc2ncc(C(N)=O)c(NC[C@@H](O)CO)n2)c1` [Example 83, (R)-2-(3-acetamidophenylamino)-4-(2,3-dihydroxypropylamino)pyrimidine-5-carboxamide]: the IC50 at JAK1 was 100 to 1000 nM; at JAK3, 10 to 100 nM; at TYK2 it was 10 to 100 nM; against Syk, > 1000 nM; against JAK2, 100 to 1000 nM.
Regarding `COCC(=O)N(C)c1cccc(Nc2ncc(C(N)=O)c(N[C@H](C)c3ccccc3)n2)c1` [Example 86, (R)-2-(3-(2-methoxy-N-methylacetamido)phenylamino)-4-(1-phenylethylamino)pyrimidine-5-carboxamide], the IC50 at JAK1 was 100 to 1000 nM; on JAK3, 1 to 10 nM; at TYK2 it was 10 to 100 nM; against Syk, > 1000 nM; at JAK2 it was 1 to 10 nM.
